Data taken from US4202891A, “15-Oxygenated sterol compounds and the use of such compounds to inhibit the biosynthesis of sterols” (priority 1977, dated 1980).

Legend:
[1] = Body weight of rats, sterol in diet; type: in vivo, rat (male, Sprague-Dawley)
Excerpt: Male rats of the Sprague-Dawley strain were purchased from Sprague-Dawley Farms (Madison, Wisconsin). The rats were maintained on a light (7:00 A.M.-5:30 P.M.)--dark (5:30 P.M.-7:00 A.M.) cycle and fed a Cholesterol Free Test Diet (United States Biochemical Corporation, Cleveland, Ohio) for a period of 13 days prior to the initiation of the experimental period. Six days prior to the initiation of the experimental period blood samples were taken for assay of serum cholesterol concentration and, based upon the results of these analyses, rats were divided into 3 groups with approximately the same mean serum cholesterol concentration. The rats were then individually housed in metabolic cages (Econo-Metabolism Units, Maryland Plastics, New York, New York) for 6 days prior to the initiation of the experimental period. The animals were maintained on the light-dark cycle throughout the experimental period.
The individual animals were weighed daily throughout the experimental period. Food consumption by the individual rats was similarly recorded daily. No significant spillage of the food or contamination of the food by feces or urine was possible due to the nature of the matabolic cage and the food receptacles utilized.
5α-Cholest-8(14)-en-3β-ol-15-one (500 mg), prepared and purified as described in Example 1, was added in small portions to 500 g of the Cholesterol Free Test Diet in a 2 liter glass stoppered bottle. After each addition of the sterol to the diet, the bottle was rolled and shaken thoroughly. The resulting 0.1% diet with respect to the 5α-cholest-8(14)-en-3β-ol-15-one was stored at 4° C. Prior to use in feeding, the diet was allowed to warm to room temperature (~25° C.).
2. Ketone group--7 rats with free access to the Cholesterol Free Test Diet containing 0.1% 5α-cholest-8(14)-en-3β-ol-15-one.
Another experiment following essentially the procedure of Example 43 was performed in which the 5α-cholest-8(14)-en-3β-ol-15-one was incorporated into the Cholesterol Free Test Diet at a concentration of 0.2%.

[2] = system: sterol biosynthesis in L cells; assay: Inhibition of sterol synthesis from [1-14C]acetate in L cell cultures; type: cell-based; details: Mus musculus; L cell cultures; read-out: Concentrations Required for 50% Inhibition of Sterol Synthesis
How it was run: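 Mouse L cells (NCTC clone 929 subline) in serum-free defined medium, preincubated 4 h with 15-oxygenated sterols, then given [1-14C]acetate at 4 μmoles per ml (4 μCi per ml). Sterol synthesis expressed as [14C]sterols/[14C]fatty acids ratio; 50% inhibitory concentration located over at least 4 compound concentrations.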

HMG-CoA reductase = assay: Reduction of the activity of HMG-CoA reductase in L cell cultures; type: cell-based, mouse; details: read-out: Concentrations Required for 50% Reduction of the Activity of HMG-CoA Reductase
How it was run: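 Mouse L cells (NCTC clone 929 fibroblast subline) grown in serum-free chemically defined medium were incubated 5 h with 15-oxygenated sterols, then harvested for microsomal HMG-CoA reductase activity. Value is the sterol concentration reducing reductase activity by 50%.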

plasma cholesterol = assay: Plasma cholesterol concentration in mice, ketone in diet (Example 47); type: in vivo, mouse; details: 0.2% in diet; after eight days; 7-week-old mice
Procedure: Another dietary experiment with 5β-cholest-8(14)-en-3β-ol-15-one was performed using 7-week-old mice. Five mice were fed the ketone at a level of 0.2% in a diet which was essentially free of animal sterols for eight days. Five control pair-fed mice were fed the same diet to which the ketone was not added. The mean plasma cholesterol concentration in the ketone group after the eight day experiment was 35.8(±3.6, standard error of mean) mg per 100 ml of plasma while the corresponding value for the pair-fed group was 114.4 (±3.4, standard error of mean). It should be noted that very closely matched pairfeeding is difficult to perform in mice of this age due to the small amounts of food which are consumed and which must be accurately determined in such experiments.

SMILES: CC(C)CCC[C@@H](C)[C@H]1CC(=O)C2=C3CC[C@H]4C[C@@H](O)CC[C@]4(C)[C@H]3CC[C@@]21C [5α-Cholest-8(14)-en-3β-ol-15-one, 5α-cholest-8(14)-en-3β-ol-15-one]
- Body weight ([1]; 0.1% in diet, day 0): 130.4 ± 4.4 g
- Body weight ([1]; 0.1% in diet, day 1): 126.6 ± 4.8 g
- Percentage change in weight from initial in individual rats ([1]; 0.1% in diet, day 1): -3.0 ± 0.7%
- Body weight ([1]; 0.1% in diet, day 2): 121.4 ± 4.4 g
- Percentage change in weight from initial in individual rats ([1]; 0.1% in diet, day 2): -7.0 ± 0.7%
- Body weight ([1]; 0.1% in diet, day 3): 120.6 ± 4.6 g
- Percentage change in weight from initial in individual rats ([1]; 0.1% in diet, day 3): -7.7 ± 0.7%
- Body weight ([1]; 0.1% in diet, day 4): 118.5 ± 4.0 g
- Percentage change in weight from initial in individual rats ([1]; 0.1% in diet, day 4): -9.1 ± 0.7%
- Body weight ([1]; 0.1% in diet, day 5): 119.4 ± 4.3 g
- Percentage change in weight from initial in individual rats ([1]; 0.1% in diet, day 5): -8.5 ± 0.5%
- Body weight ([1]; 0.1% in diet, day 6): 118.9 ± 4.8 g
- Percentage change in weight from initial in individual rats ([1]; 0.1% in diet, day 6): -8.7 ± 1.0%
- Body weight ([1]; 0.1% in diet, day 7): 116.5 ± 4.9 g
- Percentage change in weight from initial in individual rats ([1]; 0.1% in diet, day 7): -10.8 ± 1.3%
- Percentage change in weight from initial in individual rats ([1]; 0.1% in diet, day 8): -10.2 ± 0.9%
- Body weight ([1]; 0.1% in diet, day 8, listed as Ketone): 117.3 ± 4.7 g
- Body weight ([1]; 0.1% in diet, day 8, listed as ketone): 117.3 g
- Body weight ([1]; 0.2% in diet, day 0): 152.3 ± 5.5 g
- Body weight ([1]; 0.2% in diet, day 1): 151.3 ± 4.7 g
- Body weight ([1]; 0.2% in diet, day 2): 145.4 ± 4.9 g
- Body weight ([1]; 0.2% in diet, day 3): 139.0 ± 4.8 g
- Body weight ([1]; 0.2% in diet, day 4): 137.4 ± 4.9 g
- Body weight ([1]; 0.2% in diet, day 5): 134.5 ± 4.5 g
- Body weight ([1]; 0.2% in diet, day 6): 130.7 ± 5.1 g
- Body weight ([1]; 0.2% in diet, day 7): 127.7 ± 5.2 g
- Body weight ([1]; 0.2% in diet, day 8, listed as Ketone): 122.3 ± 5.8 g
- Body weight ([1]; 0.2% in diet, day 8, listed as ketone): 122.3 g
- IC50 [2]: 100 nM
- IC50 (HMG-CoA reductase): 300 nM
- mean plasma cholesterol concentration (standard error of mean) (plasma cholesterol): 35.8 mg per 100 ml of plasma
